Measured values reported in patent US12521350B2, “Liquid crystalline dosage form for administering a statin” (CUBOPHARM PTY LTD, priority 2017, dated 2026).

Legend:
human subjects = experiment: Blood lipid changes after three single 5 mg rosuvastatin doses (Example 7); format: in vivo
Description: Each participant was given a single dose of medication on separate occasions after appropriate wash-out periods. […]

[1] = In vitro release/permeation of rosuvastatin through porcine buccal mucosa in modified Ussing chambers; format: in vitro ADME, pigs
Experimental: Porcine buccal mucosa was freshly isolated from pigs cheeks, mounted between modified Ussing chambers with a donor chamber, receptor chamber and the porcine buccal mucosa in between with a diffusional area of 0.64 cm^2, and incubated in Krebs bicarbonate Ringer buffer (KBR, pH 7.4) for 30 min. The mixture or tablet containing rosuvastatin (supplied by Aspen Pharmacare Australia) were applied to the porcine buccal mucosa (ie in the donor chamber) and, when necessary, Parafilm was applied to cover the formulation (ie for tablets and for mixtures containing glyceryl monooleate (GMO) and rosuvastatin). The Parafilm prevented the various formulations from detaching from the buccal mucosa. KBR buffer (1.5 mL) was then added to both the donor and receptor chambers, and receptor samples (200 μL) were collected from the receptor chamber at various time points up to 4-5 hours to determine the amount of rosuvastatin that passed through the porcine buccal mucosa to the receptor chamber. 200 μL of fresh KBR was dispensed into the receptor chamber after each collection (to ensure volume balance). Receptor chamber samples were provided to Aspen Pharmacare Australia for quantification of rosuvastatin by HPLC.
Positive control was tested by making rosuvastatin solutions of 0.4 and 0.8 mg/1.5 ml KBR solution, equivalent to 1:[…] ODT's. […]

[2] = 10 mg, after 6 weeks therapy; cited from earlier work
[3] = Mean of 3 subjects, three single 5 mg doses
[4] = Person (buccal dosing), three single 5 mg doses
[5] = Person one (sublingual dosing), three single 5 mg doses
[6] = Person two (sublingual dosing), three single 5 mg doses
[7] = after three single 5 mg rosuvastatin doses

CC(C)c1nc(N(C)S(C)(=O)=O)nc(-c2ccc(F)cc2)c1/C=C/[C@@H](O)C[C@@H](O)CC(=O)O [rosuvastatin]
% change in HDL (human subjects; [3]): 4.8%
% change in LDL (human subjects; [3]): −26.54%
% change in Triglycerides (human subjects; [3]): −7.91%
% change in total cholesterol (human subjects; [3]): −16.8%
% change in HDL (human subjects; [4]): 5.9%
% change in LDL (human subjects; [4]): −35.7%
% change in Triglycerides (human subjects; [4]): 20.0%
% change in total cholesterol (human subjects; [4]): −20.3%
% change in HDL (human subjects; [5]): −5.9%
% change in LDL (human subjects; [5]): −21.05%
% change in Triglycerides (human subjects; [5]): −37.5%
% change in total cholesterol (human subjects; [5]): −17.5%
% change in total cholesterol (human subjects; Person two (sublingual dosing), after 5 mg Crestor, 5 mg 1:1 tablet and 5 mg 7:1 tablet on consecutive days): −12.7%
% change in HDL (human subjects; [6]): 14.3%
% change in LDL (human subjects; [6]): −22.9%
% change in Triglycerides (human subjects; [6]): −16.6%
increase of HDL (human subjects; [7]): 5%
reduction of low density lipoproteins (LDL-C) (human subjects; [7]): 27%
reduction of total cholesterol (TC) (human subjects; [7]): 17%
Total rosuvastatin absorbed per minute ([1]; positive control solution 0.4 mg/1.5 ml KBR, equivalent to 1:1 ODT): 0.6 ng/mL
Total rosuvastatin absorbed per minute ([1]; positive control solution 0.8 mg/1.5 ml KBR, equivalent to 7:1 ODT): 0.3 ng/mL

CC(C)c1c(C(=O)Nc2ccccc2)c(-c2ccccc2)c(-c2ccc(F)cc2)n1CC[C@@H](O)C[C@@H](O)CC(=O)O [atorvastatin]
Reductions in LDL-C [2]: 37%
